Experiments:
[1] = test system: NF-κB signaling pathway in stable HEK293/NF-κB cells; assay: NF-κB signaling pathway inhibitory activity assay (luciferase reporter, TNF-α stimulation); type: cell-based; conditions: Homo sapiens, luciferase read after 6 h
Method: NF-κB signaling pathway inhibitory activity was evaluated according to the previously reported protocol. Stable HEK293/NF-κB cells were plated into 384-well plates at a concentration of approximate 2500 cells per well. After culturing overnight, compounds were added to the medium at a final concentration of 0.1 μg/mL. HEK293/NF-κB cells were seeded into 96-well cell culture plates (Corning, NY, USA) and allowed to grow for 24 h. The cells were then treated with compounds, followed by stimulation with TNF-α. 6 h later, the luciferase substrate was added to each well, and the released luciferin signal was detected using an EnVision microplate reader. The IC50 was calculated with Prism 4 software (Graphpad, San Diego, CA) from the nonlinear curve fitting of the percentage of inhibition (% inhibition) versus the inhibitor concentration [I] by using the following equation: % inhibition = 100/(1 + [IC50/[I]]^k), where k is the Hill coefficient.

[2] = biological target: T1, recombinant PTP1B catalytic domain (Homo sapiens, UniProt P18031); assay: PTP1B inhibitory activity assay (pNPP hydrolysis); type: biochemical; conditions: pNPP substrate, 30 °C, pH 6.5; IC50 ≥ 50 μM was considered inactive
T1 construct: The recombinant PTP1B catalytic domain was expressed and purified according to a previous report; made in house
T1 sequence (P18031 3-277 limits assumed): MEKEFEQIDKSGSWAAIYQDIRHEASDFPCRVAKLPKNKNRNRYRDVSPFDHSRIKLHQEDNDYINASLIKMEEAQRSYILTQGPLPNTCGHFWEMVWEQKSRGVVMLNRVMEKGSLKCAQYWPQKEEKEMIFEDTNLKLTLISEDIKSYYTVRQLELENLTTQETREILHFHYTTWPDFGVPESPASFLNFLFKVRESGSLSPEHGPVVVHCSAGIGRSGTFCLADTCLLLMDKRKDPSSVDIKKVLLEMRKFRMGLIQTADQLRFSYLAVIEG
Method: The recombinant PTP1B catalytic domain was expressed and purified according to a previous report. The enzymatic activities of the PTP1B catalytic domain were determined at 30 °C by monitoring the hydrolysis of pNPP. Dephosphorylation of pNPP generated the product pNP, which was monitored at an absorbance of 405 nm with an EnVision multilabel plate reader (Perkin–Elmer Life Sciences, Boston, MA). In a typical […] assay mixture containing 50 mmol/L 3-morpholinopropanesulfonic acid, pH 6.5, 2 mmol/L pNPP, and 30 nmol/L recombinant PTP1B, activities were continuously monitored and the initial rate of hydrolysis was determined by using the early linear region of the enzymatic reaction kinetic curve.

| SMILES | IC50 [1] [µM] | IC50 [2] [µM] | IC50 (μM) PTP1B [2] |
| --- | --- | --- | --- |
| CC(C)C[C@H](NC(=O)[C@H](Cc1ccccc1)NC(=O)c1cnccn1)B(O)O [bortezomib, reference compound] | 14 |  |  |
| Cc1cc(Br)c(C2(C)CCC(=CBr)C2C)cc1O (stereo not shown) [compound 1, isobromolaurenisol] | 19.9 | 18.8 |  |
| C=C1CCC(C)(c2cc(O)c(C)cc2Br)C1C (stereo not shown) [compound 2, clalaurenol A] | 6.8 | 21.8 |  |
| Cc1ccc(C2(C)CCC(=CBr)C2C)c(O)c1 (stereo not drawn) [compound 3, ent-laurenisol] |  | > 50 | inactive |
| Cc1cc(O)c(C2(C)CCC(=CBr)C2C)cc1Br (stereo not shown) [compound 4, clalaurenol B] | 7.3 | 15.6 |  |
| Cc1cc(Br)c([C@]2(C)CC=CC2(C)C)cc1O [compound 5, cupalaurenol] |  | > 50 |  |
| C=C1CCC2C(C3C(C)CCC13O)C2(C)C (stereo not shown) [compound 6, claaromadendrene] |  | > 50 |  |
| C=C1CC[C@H]2[C@@H]([C@H]3[C@@H](C)CC[C@@]13O)C2(C)C [compound 7, 1-hydroxyalloaromadendrene] |  | > 50 |  |
| C/C1=C\CC(C)(C)/C=C/C[C@@]2(C)O[C@@H]2CC1 [compound 8, humulene epoxide II] |  | > 50 |  |
